Laboratory results as given in PMC11061149, “Protein mimetic 2D FAST rescues alpha synuclein aggregation mediated early and post disease Parkinson’s phenotypes” (Nature Communications, 2024).
“And” between values parts separate entries of the source, which are not always exact repeats. Equal values may be shown once. One block for each compound: values may come before it.

Assays:
[1] = molecular target: T1, α-Synuclein (αS) aggregation (Homo sapiens, UniProt P37840); test: Thioflavin T (ThT) dye-based αS aggregation assay (de novo); type: biochemical; conditions: for ThT intensity relative to Synuclein alone (=1), Average / ThT intensity relative to Synuclein alone (=1), Trial 1-3: 100 µM αS, four days; for remaining activity at 100 µM: 96 h, pH 6.5, 100 μM αS, 1×PBS pH 6.5, four days, ligand:αS equimolar, read-out: ThT signal/intensity relative to αS alone (100%)
T1 construct: made in house; host or cells: E. coli BL21(DE3)
Procedure: We used a 2D FAST approach in OPs to identify potent antagonists of the aggregation of αS. In this approach, we start with a library of monopyridyls with different functional groups. The library of monopyridyls was synthesized using 2-chloro-6-methyl-3-nitropyridine as a common precursor, which was treated with primary alcohols with diverse side chain functionalities via a one-pot reaction (Fig. 1B, a and see Supplementary information for synthetic details). […] We selected the side chains containing hydrophobic, polar, positively charged, and negatively charged functional groups, which mimic the side chains of the amino acids (Fig. 1C). […] The monopyridyl library was screened against the aggregation of 100 μM αS at an equimolar ratio using Thioflavin T (ThT) dye-based aggregation assay (Fig. 1B, b). […] The chloro-dipyridyl was reacted with a library of primary amines/thiols to synthesize a library of dipyridyls (Fig. 1B, e) using a one-pot reaction. […] However, a few dipyridyls required column chromatography to separate them from the starting material side chains because of their very high boiling point (7 out of 21 dipyridyls required column, Supplementary Fig. 1). […]
Aggregation Kinetics were measured according to a previously described protocol. […] The solutions were placed in a ThermoMixer (Eppendorf, Hamberg, Germany) at 37 °C with constant shaking at 1300 rpm (rpm). At different time points, 5 μL aliquots of each αS solution were added to 95 μL PBS containing 50 μM Thioflavin T (ThT) dye in a Costar black 96 well plate (Corning Inc., Kennebunk, ME). ThT fluorescence intensity was measured (λex = 450 nm and λem = 490 nm) on an Infinite M200PRO plate reader (Tecan, Männedorf, Switzerland), and plotted against time to give a sigmoidal curve typical of amyloid aggregation. For the single point ThT aggregation, 100 μM αS, in the absence and presence of ligands, was aggregated under the described conditions and the ThT fluorescence was reported at 96 h. The reported ThT intensity values are the average of each experiment conducted in triplicate, with the error bars representing the standard deviations or standard error of the mean (s.e.m.) as described in the main manuscript.

αS aggregation = molecular target: T2, αS aggregation (Homo sapiens, UniProt P37840); test: SDS-PAGE gel shift assay of soluble and insoluble αS fractions; type: biochemical; conditions: for αS band intensity, Total: individual trials
T2 construct: made in house; host or cells: E. coli BL21(DE3)
From the text: The inhibition of αS aggregation by NS41 was also confirmed by TEM images, which show an abundance (Supplementary Fig. 3a) and low amount (Supplementary Fig. 3b) of αS fibers in the absence and presence of NS41, respectively. We used SDS-PAGE (Sodium dodecyl sulfate polyacrylamide gel electrophoresis) as a complementary assay to validate ThT results and to further characterize the antagonist activity of the monopyridyls against αS aggregation. We used a total of four monopyridyls with varying antagonist activity against αS aggregation for the SDS-PAGE assay. The solutions of αS (±monopyridyls) were centrifuged and the soluble and insoluble fractions were subjected to SDS-PAGE analysis as reported earlier (Fig. 2d, Supplementary Fig. 4a, see details in methods section). The band intensities of the gels in SDS-PAGE assay were quantified using ImageJ software. In the absence of ligands, ~12% of αS was found in the soluble fraction and the rest was found in the insoluble fraction (Fig. 2d, Supplementary Fig. 4a, b). In the presence of NS41 at molar ratios of 1:1 and 2:1 (NS41:αS), 48% and 73% of αS protein were found in the soluble fraction, respectively, and the rest of αS protein was found in the insoluble fraction (Fig. 2d, Supplementary Fig. 4a, b). […] The antagonist activity of the monopyridyls corroborated well from both ThT and the SDS-PAGE assays (Fig. 2a–d, Supplementary Fig. 4a, b). The higher the antagonist activity of monopyridyls against αS aggregation, the lower the ThT intensity and the higher the amount of αS remained in the soluble fraction (Fig. 2a–d, Supplementary Fig. 4a, b). […] It is important to note that NS41 contains a carboxyl (COOH) functional group side chain. […] We have also shown in that work that the foldamer binds to the N-terminus of αS because of its negatively charged COOH functional group interaction with the positively charged lysine residues of αS[24]. […] Additionally, we have also shown that the OPs with the COOH functional group are very effective inhibitors of aggregation of other amyloid proteins that contain lysine amino acid via the formation of salt bridges[30]–[34].
An αS solution (100 µM) was prepared in PBS with or without ligands and shaken ([…], 37 °C) until the fluorescence plateaued, as observed using the ThT aggregation assay, indicative of the aggregation of αS as a control (four days for most experiments unless otherwise mentioned). The solutions were separated into soluble and insoluble fractions by centrifugation at 22,000 × g for 20 min. The fractions were diluted in 2×Laemmli protein sample loading buffer (Containing 2.1% SDS, Bio-rad, Hercules, CA), boiled at 95 °C for 5 min, and ran on a 12% Mini-PROTEAN precast protein gel (Bio-rad, Hercules, CA). The gel was visualized using ChemiDoc MP Imaging System (Bio-rad, Hercules, CA) and band intensity was quantified using Image Lab image acquisition and analysis software (Bio-rad, Hercules, CA). Densitometry values were averaged from three technical replicates and reported with the error bars representing their standard deviations.

αS fibers = molecular target: T3, αS fibers (Homo sapiens, UniProt P37840); test: Transmission electron microscopy (TEM) of αS solutions; type: biochemical; conditions: 100 µM αS aggregated for four days with ligand
T3 construct: made in house; host or cells: E. coli BL21(DE3)
Procedure: Transmission Electron Microscopy was used to visualize protein assemblies after aggregation experiments as previously described. Briefly, aliquots (5 μL) of αS solutions (with or without ligands) were applied on glow-discharged carbon-coated 300-mesh copper grids for 2 min and dried using Kimwipes (Kimberly-Clark, Irving, TX). The copper grids were negatively stained for 1 min with uranyl acetate (0.75%, w/v). The micrographs were taken on an FEI Tecnai G2 Biotwin TEM at 80 kV accelerating voltages.

UA196 worms = test: Motility assay of UA196 worms in the presence of dopamine and NS163; type: in vivo, C. elegans; conditions: for Motility of worms, UA196+Dopamine: individual trials
Procedure: This motility assay was performed exactly as the previous assay with slight adjustment in the preparation of the plates for the treatment of UA196 worms. For this assay, the only difference is the 24 well plates were prepared with 2 mM dopamine (referred to as PLATE 5) and both 2 mM dopamine and 50 µM NS163 (referred to as PLATE 6). To prepare PLATE 5, the NGM media containing 75 µM FUDR was autoclaved and poured in NGM plates (2 mL total liquid). After 12 h, the NGM plates were seeded with 350 µL of OP50 (with OD = 0.5 at 600 nm) at 20 °C. After 12 h, 2 mM dopamine dissolved in M9 buffer (total volume = 300 µL) was spotted atop the NGM plates at 20 °C. To prepare PLATE 6, the NGM media containing 75 µM FUDR was autoclaved and poured in NGM plates (2 mL total liquid). After 12 h, the NGM plates were seeded with 350 µL of OP50 (with OD = 0.5 at 600 nm) at 20 °C. After 12 h, NS163 (50 µM, stock conc. = […] in DMSO) and dopamine (2 mM in M9 buffer) were dissolved in M9 buffer (total volume = 300 µL) and were spotted atop the NGM plates at 20 °C. The NGM plates treated with dopamine and NS163 and dopamine were placed in sterile laminar flow hood at 20 °C for 1 h. The NGM plates treated with dopamine and NS163 and dopamine were prepared and used within 24 h.
There were six conditions for this experiment: (1) N2 worms, (2) N2 worms treated with 2 mM dopamine, (3) UA196 worms, (4) UA196 worms treated with 2 mM dopamine, (5) UA196 worms treated with 50 µM NS163, and (6) UA196 worms treated with 2 mM dopamine and 50 µM NS163. For each condition, four biological replicates were performed, and each biological replicate consisted of four technical replicates (four wells). For each condition, the data were expressed as mean and the error bars report the s.e.m. (n = 4 independent experiments and each n consisted of a total of four technical replicates).

ThT signal relative to αS alone (100%) ([1]; 100 μM αS, 1×PBS pH 6.5, NS41/αS 2:1): 17% | ThT intensity relative to Synuclein alone (=1), Average ([1]; equimolar): 0.2889 | ThT intensity relative to Synuclein alone (=1), Trial 1-3 ([1]; equimolar, individual trials): 0.2946 and 0.2756 and 0.2964 | ThT intensity relative to Synuclein alone (=1), Average ([1]; ligand 2 mole Eq.): 0.162 | ThT intensity relative to Synuclein alone (=1), Trial 1-3 ([1]; ligand 2 mole Eq., individual trials): 0.1784 and 0.1666 and 0.1411 | remaining activity at 100 µM [1]: 29% | αS protein found in the soluble fraction (αS aggregation; 100 µM αS, four days, NS41:αS 2:1): 73% | αS protein found in the soluble fraction (αS aggregation; 100 µM αS, four days, ligand:αS 1:1): 48% | αS band intensity, Total, Average (αS aggregation; sheet S4B, ligand 1 eq.): 100 | αS band intensity, Total (αS aggregation; sheet S4B, ligand 1 eq.): 95 and 102.5 (2×) | αS band intensity, Total, Average (αS aggregation; sheet S4B, ligand 2 eq.): 100 | αS band intensity, Total (αS aggregation; sheet S4B, ligand 2 eq.): 96 and 102 (2×) | αS fibers seen in TEM images, in words (αS fibers): low amount
Structure (SMILES): Cc1ccc([N+](=O)[O-])c(OCC(=O)O)n1 [NS41]

ThT fluorescence intensity, Average ([1]; 100 µM αS + equimolar ligand, aggregation profile Fig. 2h, time 0 hr): 638.333 | attenuation of the ThT signal of αS aggregation ([1]; 100 μM αS, equimolar): 96% | ThT intensity relative to Synuclein alone (=1), Average ([1]; equimolar): 0.04101 | ThT intensity relative to Synuclein alone (=1), Trial 1-3 ([1]; equimolar, individual trials): 0.05227 and 0.03887 and 0.03187 | ThT intensity relative to Synuclein alone (=1), Average ([1]; substoichiometric αS:ligand 1:0.5): 0.7474 | ThT intensity relative to Synuclein alone (=1), Trial 1-3 ([1]; substoichiometric αS:ligand 1:0.5, individual trials): 0.775 and 0.733 and 0.7343 | remaining activity at 100 µM [1]: 4% | ThT fluorescence intensity, Average ([1]; Fig. 2h profile, time 12 hr): 699.667 | ThT fluorescence intensity, Average ([1]; Fig. 2h profile, time 24 hr): 689.333 | ThT fluorescence intensity, Average ([1]; Fig. 2h profile, time 48 hr): 722.667 | ThT fluorescence intensity, Average ([1]; Fig. 2h profile, time 72 hr): 793 | ThT fluorescence intensity, Average ([1]; Fig. 2h profile, time 96 hr): 631.333 | ThT fluorescence intensity, Average ([1]; Fig. 2h profile, time 144 hr): 658.333 | ThT fluorescence intensity, Average ([1]; Fig. 2h profile, time 192 hr): 603.333 | ThT fluorescence intensity, Average ([1]; Fig. 2h profile, time 300 hr): 570.333 | Relative ThT intensity of αS aggregation, Average ([1]; sheet S5A, Synuclein alone about 1): 0.04101 | Relative ThT intensity of αS aggregation ([1]; sheet S5A, Synuclein alone about 1, individual trials): 0.05227 and 0.03887 and 0.03187 | amount of αS in the insoluble fraction (αS aggregation; 100 µM αS, four days, equimolar): 26% | αS band intensity, Total, Average (αS aggregation; sheet S5B): 100 | αS band intensity, Total (αS aggregation; sheet S5B): 95.6 and 105.4 and 99 | αS fibers seen in TEM images, in words (αS fibers): no
Structure (SMILES): Cc1ccc(NC(=O)c2ccc([N+](=O)[O-])c(NCC3CCCCC3)n2)c(OCC(=O)O)n1 [NS55]
distribution of αS between soluble and insoluble fraction, in words (αS aggregation; substoichiometric ratio αS:ligand 1:0.5): a significant amount of αS protein was found in the insoluble form

Structure (SMILES): NCCc1ccc(O)c(O)c1 [dopamine]
Motility of worms, UA196+Dopamine (UA196 worms; Day 4): 146 and 123 and 134 and 157 | Motility of worms, UA196+Dopamine (UA196 worms; Day 5): 129 and 128 and 126 and 106 | Motility of worms, UA196+Dopamine (UA196 worms; Day 6): 99 and 108 and 117 and 122 | Motility of worms, UA196+Dopamine (UA196 worms; Day 7): 108 and 102 and 112 and 99 | Motility of worms, UA196+Dopamine (UA196 worms; Day 8): 108 and 103 and 97 and 100 | Motility of worms, UA196+Dopamine (UA196 worms; Day 9): 93 and 88 and 92 and 89 | Motility of worms, UA196+Dopamine (UA196 worms; Day 10): 87 and 88 and 92 and 89 | Motility of worms, UA196+Dopamine (UA196 worms; Day 11): 75 and 62 and 83 and 87 | Motility of worms, UA196+Dopamine (UA196 worms; Day 12): 72 and 83 and 69 and 65 | Motility of worms, UA196+Dopamine (UA196 worms; Day 13): 51 and 78 and 67 and 62 | motility of UA196 worms treated with dopamine, in words (UA196 worms; dopamine 2 mM, day two and four): much higher motility
